Results reported in patent US8193333B2, “Cancer therapy using Bcl-Xl-specific siNA” (Centre Regional de Lutte Contre le Cancer-Centre Francois …, priority 2006, dated 2012).

Key:
Bcl-XL protein = experiment: Western blot of Bcl-XL protein expression in tumour cell lines after siRNA transfection; assay type: cell-based, human; conditions: SKOV3 cells
Description: SKOV3, OAW42, OAW42-R10, IGROV1 and IGROV1-R10 human ovarian adenocarcinoma cell lines, GL15 glioblastoma cell line, and NCI-H28 mesothelioma cell line were obtained from ECACC or ATCC. OAW42, OAW42-R10 cells were grown in DMEM (GIBCO-BRL) supplemented with 10% foetal calf serum (GIBCO-BRL), 2 mM Glutamax™ (GIBCO-BRL), 1 mM sodium pyruvate (GIBCO-BRL), 20 UI/L human recombinant insulin (LILLY), 33 mM sodium bicarbonate and 20 mM HEPES All the other cell lines were grown in RPMI 1640 medium (GIBCO-BRL) supplemented with 10% foetal calf serum (GIBCO-BRL), 2 mM Glutamax™ (GIBCO-BRL), 33 mM sodium bicarbonate and 20 mM HEPES. Cells were maintained at 37° C. in a 5% CO2 humidified atmosphere, and split twice a week by trypsinization.
(§1) Exponentially growing cells were exposed to CDDP for 2 hours at 37° C., in serum free medium. After exposure to the drug, the cell layers were rinsed and incubated in complete growth medium.
(§2) The siRNA duplexes were transfected according to the recommended procedure by using the Oligofectamine Reagent and Opti-MEM medium (INVITROGEN LIFE TECHNOLOGIES). 30-40% confluent cells were transfected in 25 cm^2 flasks with different concentrations of siXL1, siRNA Mcl-1 or siRNA control and incubated at 37° C., 5% CO2 for 4 hours. Next, 20% fetal bovin serum was added to reach a final concentration of 10% foetal bovin serum in the 25 cm^2 flask.
(§3) Cells were rinsed with ice cold PBS and lysed in 150 mM NaCl, 50 mM Tris-HCl pH 8, 1% Triton X100, 4 mM PMSF, 2 mM Aprotinin, 5 mM EDTA, 10 mM NaF, 10 mM NaPPi, 1 mM Na3VO4 for 30 min on ice. Lysates were clarified by centrifugation at 10000 g for 10 min at 4° C. and protein concentrations were determined using the Bradford assay (BIO-RAD). Equal amounts of total cellular protein (20 μg) were resolved in a Bis-tris-HCL buffered (pH 6.4) 4-12% polyacrylamide gel (NuPAGE® Novex® 4-12% Bis-tris gel, INVITROGEN) for 35 min at 200V and electrophoretically transferred on a PVDF membrane (MILLIPORE) for 75 min at 30V. The membrane was blocked for 1 hour at room temperature in T-TBS (132 mM NaCl, 20 mM Tris-HCl pH 7.6, 0.05% Tween 20) supplemented with 5% non-fat dry milk. The membrane was incubated for 1 hour at room temperature in T-TBS-milk with the following primary antibodies: anti-Bcl-XL/S (1:500, S18 SANTA-CRUZ BIOTECHNOLOGY), anti-PARP (1:1000, CELL-SIGNALING TECHNOLOGY), anti-caspase-3 (1:1000, BD BIOSCIENCES PHARMINGEN) anti-cleaved caspase-3 (1:1000, CELL-SIGNALING TECHNOLOGY), anti-alpha-tubulin (1:3000, SIGMA) and anti-Mcl-1 (1:750, S19 SANTA-CRUZ BIOTECHNOLOGY). After three washes with T-TBS, the membrane was incubated for 1 h at room temperature in T-TBS-milk with the adequate peroxidase conjugated secondary antibody (Anti-rabbit IgG, CELL-SIGNALING TECHNOLOGY, and anti-mouse IgG, AMERSHAM). After 3 washes with T-TBS and one with TBS, the immunoreactivity was detected by enhanced chemiluminescence (ECL kit, AMERSHAM).

SKOV3 cells [1] = experiment: Apoptosis induction in SKOV3 cells (cell and nuclear morphology after DAPI, caspase 3 activation and PARP cleavage by Western blot); assay type: cell-based, human; conditions: 24 h, combination with 20 μg/ml cisplatin
Description: as §1, §2, §3
(§4) After treatment, detached cells were collected separately and adherent cells were dissociated by trypsin/EDTA. Adherent and detached cells were then pooled and centrifuged at 1500×g for 5 min before being fixed in 70% ethanol. The cells were then collected on a polylysine-coated glass slide by cytocentrifugation, before a 30 min room temperature incubation in a 1 μg/ml DAPI aqueous solution (BOEHRINGER MANNHEIM). Slides were thereafter extensively washed in distilled water and mounted in Mowiol (CALBIO-CHEM).

SKOV3 cells [2] = experiment: Cell mortality, viability, growth and cell cycle of SKOV3 cells (morphology, trypan blue exclusion, FACS of DNA content); assay type: cell-based, human; conditions: for cell death (morphology, FACS analysis of the cell cycle): cisplatin 5 or 20 μg/ml, siRNA 150 nM; for cellular and nuclear morphologies and cell cycle versus untransfected SKOV3 cells: alone 150 nM or in combination 75 nM each, 72 h after transfection, FIG. 13
Description: as §1, §2, §4
After treatment, detached cells were collected separately. Adherent cells were then harvested by trypsin/EDTA dissociation. Adherent and detached cells were then pooled and washed in PBS before being fixed in 70% ethanol and stored at −20° C. until analysis. Before flow cytometry analysis, the cells were washed in PBS and incubated for 30 min at room temperature in PBS in order to allow the release of low molecular weight (m.w.) DNA, characteristic of apoptotic cells. After a centrifugation at 4000 g for 10 min, the cell pellets were resuspended and stained with propidium iodide (PI) using the DNA Prep Coulter Reagent Kit (BECKMAN-COULTER) at a final concentration of 10^6 cells/ml.
Samples were analyzed using an EPICS XL flow cytometer (BECKMAN COULTER) equipped with an argon laser at 15 mW. PI-stained cells were analyzed using a 488 mn excitation. A 620 nm band pass filter was put on the red fluorescence of PI. Computerized gating was applied on the side and forward scatter to exclude very small debris and on pulse width and integral peak of red fluorescence to eliminate aggregates. All samples were analyzed at a flow rate lower than 100 events per second and with a sheath pressure of 30 psi.

[3] = test system: intraperitoneal SKOV3 human ovarian adenocarcinoma; experiment: Survival of nude mice bearing intraperitoneal SKOV3 tumours; assay type: in vivo, Swiss/nude mice; conditions: siRNA 25 μg/kg, cisplatin 4 μg/kg intraperitoneal, treatment repeated one month later, FIG. 15
Description: 4-week-old female Swiss/nude mice were obtained from CHARLES-RIVER LABORATORIES and maintained in a pathogen-free environment. The mice were fed a standard laboratory diet and tap water ad libitum and kept a 23±1° C. with a 12 h light/dark cycle. Animal experiments in the present study were performed in compliance with the guidelines of the Federation of european laboratory animal science associations.
6-8 weeks old mice were implanted intraperitoneally with 2×10^7 ovarian adenocarcinoma SKOV3 cells. As described previously, this model reflects the i.p growth pattern of advanced ovarian cancer (Louis et al, Cancer Gene Therapy, 2006, 13, 367-374).
Twenty one days after tumour implantation, mice were allocated to one of the eight treatment groups (10 mice per group) summarized in Table II: • Group 1 comprised untreated animals. • Group 2 received intraperitoneal injection of 4 μg/kg cisplatin in 1 ml 0.9% NaCl solution. • Group 3 received intraperitoneal injection of 25 μg/kg control siRNA in 1 ml 0.9% NaCl. • Group 4 received intraperitoneal injection of 25 μg/kg Bcl-XL siRNA in 1 ml 0.9% NaCl. • Group 5 received intraperitoneal injection of 25 μg/kg control siRNA in 1 ml 0.9% NaCl and the following day 4 μg/kg of cisplatin in 1 ml 0.9% NaCl solution. • Group 6 received intraperitoneal injection of 4 μg/kg of cisplatin in 1 ml 0.9% NaCl solution and the following day 25 μg/kg control siRNA in 1 ml 0.9% NaCl. • Group 7 received intraperitoneal injection of 25 μg/kg Bcl-XL siRNA in 1 ml 0.9% NaCl and the following day 4 μg/kg of cisplatin in 1 ml 0.9% NaCl solution. • Group 8 received intraperitoneal injection of 4 μg/kg of cisplatin in 1 ml 0.9% NaCl solution and the following day 25 μg/kg Bcl-XL siRNA in 1 ml 0.9% NaCl.
The same treatment was repeated one month later. Mice were killed and autopsied when considered as moribund. Organs and tumours were formalin-fixed and paraffin-embedded for histological examination. At the end of the experiment, all surviving animals were sacrificed, and histological examination was performed in order to detect residual tumour nodes.

Mcl-1 mRNA = experiment: RT-PCR of Mcl-1 mRNA in SKOV3 cells; assay type: cell-based, human; conditions: 72 h after transfection, FIG. 11A
Description: as §2

Mcl-1 protein = experiment: Western blot of Mcl-1 protein expression in SKOV3 cells; assay type: cell-based, human; conditions: FIG. 11B
Description: as §2
Cells were rinsed with ice cold PBS and lysed in 150 mM NaCl, 50 mM Tris-HCl pH 8, 1% Triton X100, 4 mM PMSF, 2 mM Aprotinin, 5 mM EDTA, 10 mM NaF, 10 mM NaPPi, 1 mM Na3VO4 for 30 min on ice. Lysates were clarified by centrifugation at 10000 g for 10 min at 4° C. and protein concentrations were determined using the Bradford assay (BIO-RAD). Equal amounts of total cellular protein (20 μg) were resolved in a Bis-tris-HCL buffered (pH 6.4) 4-12% polyacrylamide gel (NuPAGE® Novex® 4-12% Bis-tris gel, INVITROGEN) for 35 min at 200V and electrophoretically transferred on a PVDF membrane (MILLIPORE) for 75 min at 30V. The membrane was blocked for 1 hour at room temperature in T-TBS (132 mM NaCl, 20 mM Tris-HCl pH 7.6, 0.05% Tween 20) supplemented with 5% non-fat dry milk. […] After 3 washes with T-TBS and one with TBS, the immunoreactivity was detected by enhanced chemiluminescence (ECL kit, AMERSHAM).

Compound	Bcl-XL protein expression 24 hours after exposure to cisplatin (Bcl-XL protein; 72 hours after siRNA transfection, cisplatin 5 and 20 μg/ml, FIG. 9)	caspase 3 activation and PARP cleavage after 24 h exposure to cisplatin (SKOV3 cells [1])	cell mortality / cell cycle after several days (SKOV3 cells [2]; SKOV3 cells, cisplatin 5 and 20 μg/ml)	cell death (morphology, FACS analysis of the cell cycle) (SKOV3 cells [2]; SKOV3 cells)	effect on mice survival [3]	effect of various concentrations on Bcl-XL protein expression (Bcl-XL protein; 72 h after transfection, FIG. 3)	cellular and nuclear morphologies and cell cycle versus untransfected SKOV3 cells (SKOV3 cells [2])	cytotoxic effect on SKOV3 cells (SKOV3 cells [2]; 50 nM each siRNA, absence of cisplatin, FIG. 12)	cytotoxic effect of each siRNA (SKOV3 cells [2]; SKOV3 cells, FIGS. 13 and 14)	Mcl-1 mRNA expression (RT-PCR) (Mcl-1 mRNA)	Mcl-1 protein expression after 72 hours (Mcl-1 protein)
N.N.[Cl][Pt][Cl] [cisplatin, cis-diamino-dichloro-platinum II, reference compound]	no effect	no sign of apoptosis	only a transient arrest in cell cycle progression	low level or no cell death	does not improve survival	–	–	–	–	–	–
control siRNA: control siRNA without homology to relevant human genes; sense SEQ ID NO: 9, anti-sense SEQ ID NO: 10 (sense GACGUGGGACUGAAGGGGUTT; antisense ACCCCUUCAGUCCCACGUCTT; chemistry not given here) [reference compound]	–	–	–	no changes	does not increase the mice survival	No effect	no difference	–	–	–	–
siMcl-1: Mcl-1 specific siRNA; sense 5′-gugccuuuguggcuaaacatt-3′ (SEQ ID NO: 7), anti-sense 5′-uguuuagccacaaaggcacct-3′ (SEQ ID NO: 8) (sense GUGCCUUUGUGGCUAAACATT; antisense UGUUUAGCCACAAAGGCACCT; chemistry not given here)	–	–	–	–	–	–	no difference	no cytotoxic effect	slight cytoxic effect	almost completely	disappeared totally
